As usually defined, the EC50 is the midpoint of the concentration-response curve. In general, IC50 refers to the midpoint of a concentration-inhibition curve. The AC50 is the midpoint of the concentration-response curve, whichever way the signal moves.

The values that follow come from ChEMBL document CHEMBL1201862, “PubChem BioAssay data set” (2004).

The structures appear in SMILES notation. Activity calls are given as the source filed them.

The target in one experiment is Transthyretin (Homo sapiens, UniProt P02766). The experiment in a line: Luminescence-based cell-based high throughput dose response assay to identify activators of Transthyretin (TTR) transcription. Type of experiment: functional.
A short description of experiment [1]: viability loss in Vero cells – cytotoxicity control for Vif-APOBEC3G degradation inhibitor project, dose response (AID 1117358). Type of experiment: functional. The settings on record: Vero.
Another experiment concerns the target NADPH oxidase 1 (Homo sapiens, UniProt Q9Y5S8). Briefly: Late-stage luminescence-based cell-based dose response assay to identify inhibitors of NADPH oxidase 1 (NOX1): Synthesized analogs. Type of experiment: functional.
Experiment [2] is described as follows: growth inhibition of yeast DHODH-expressing 3D7 parasites – SYBR Green, dry powder samples, dose response (AID 1159570).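 Further: parasite growth measured after 72 hours of compound exposure.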 Type of experiment: functional, cell-based.
Experiment [3] can be described thus: toxicity to human HepG2 hepatoma cells – cell-based, plate reader, dry powder samples, cytotoxicity control, dose response (AID 1159569).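 Further: inhibitor potency with signal falling toward the positive control level.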 It is filed as functional.
Experiment [4] is described as follows: P. falciparum Dd2 growth inhibitors, dose response, SYBR Green, cherry-picked samples (AID 1159567). It is filed as functional, cell-based.
The nature of experiment [5]: Dd2 malaria parasite growth inhibition potency – SYBR Green, dry powder samples, dose response (AID 1159566).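 Further: potency for growth inhibition with lower SYBR green DNA signal.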 It is filed as functional, cell-based.
Experiment [6] in a line: toxicity to human hepatoma HepG2 cells – cell-based, cherry-picked samples, cytotoxicity control, dose response (AID 1159577). Type of experiment: functional.
Experiment [7] is described as follows: growth inhibition of PfATP4-mutant resistant parasites – NITD609-resistant line, SYBR Green, dry powder, dose response (AID 1159571).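 Further: parasites synchronized at ring stage by sorbitol before testing.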 It is filed as functional, cell-based.
The target in experiment [8] is Serine/threonine-protein phosphatase PP1-alpha catalytic subunit (Homo sapiens, UniProt P62136). The experiment in a line: inhibition of protein phosphatase 1 activity – biochemical, fluorescence, dose response (AID 2394).
Experiment [9] relates to Streptococcus sp. 'group A'. Briefly: Streptococcus pyogenes SK(-)GAS viability under kanamycin – luminescence, BacTiterGlo, confirmation, counter-screen for streptokinase expression inhibitor project, dose response (AID 1900). Type of experiment: functional, organism-based. On the technique in general: The purpose of a counterscreen is to sort out artefacts and off-target activity.

A short description of experiment [10]: Trypanosoma cruzi growth suppression in host cells – NIH3T3 host cells, beta-gal luminescence, confirmation (AID 2044).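 Further: intracellular parasites grown in NIH/3T3 mouse fibroblasts as host cells; luminescent beta-galactosidase reporter signal from transgenic T. cruzi replicating inside host cells; inhibitors lower the luminescence signal.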 It is filed as functional, cell-based.
Experiment [11] can be described thus: microbe, parasite or virus in culture. Type of experiment: functional. The settings on record: Mycobacterium tuberculosis.
The target in experiment [12] is Protein-tyrosine kinase 2-beta (Homo sapiens, UniProt Q14289).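 Further: potency of inhibitors of PYK2 kinase phosphorylation of poly-GT substrate.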
In experiment [13] the target is Serine/threonine-protein phosphatase (Homo sapiens, UniProt Q9BPW0). Briefly: inhibition of protein phosphatase 5 activity – biochemical, fluorescence, dose response (AID 2395).
Experiment [14] is described as follows: NIH3T3 cell viability loss – ATP luminescence, mouse fibroblasts, counter-screen, dose response (AID 2010).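 Further: cells exposed to compound for about 90 hours before reading.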 Type of experiment: functional, cell-based.
Experiment [15] has as its target Heat shock protein HSP 90-alpha (Homo sapiens, UniProt P07900). The experiment in a line: Luminescence-based dose response biochemical high throughput screening assay for inhibitors of the Heat Shock Protein 90 (HSP90). [Related pubchem assays: 1831 (Summary AID.), 1846 (Confirmation screen.), 1789 (Primary screen.)].
The next experiment deals with Streptococcus. Briefly: GAS UMAA2166 growth inhibition – luminescence, BacTiterGlo, counter-screen for streptokinase expression inhibitor project, dose response (AID 1915).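 Further: potency for reduction of bacterial viability or growth.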 It is filed as functional, organism-based.
The nature of experiment [16]: HEK-293T viability loss after treatment – luminescence, T-cell screen hits, cytotoxicity control for TCR NF-kB inhibitor project, dose response (AID 489026).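 Further: cells exposed to compound about 14 hours before the viability readout.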 It is filed as functional, cell-based.
The target of experiment [17] is T1, Replicative DNA helicase DnaB (Mycobacterium tuberculosis, UniProt P9WMR3).
T1 sequence (P9WMR3 whole entry): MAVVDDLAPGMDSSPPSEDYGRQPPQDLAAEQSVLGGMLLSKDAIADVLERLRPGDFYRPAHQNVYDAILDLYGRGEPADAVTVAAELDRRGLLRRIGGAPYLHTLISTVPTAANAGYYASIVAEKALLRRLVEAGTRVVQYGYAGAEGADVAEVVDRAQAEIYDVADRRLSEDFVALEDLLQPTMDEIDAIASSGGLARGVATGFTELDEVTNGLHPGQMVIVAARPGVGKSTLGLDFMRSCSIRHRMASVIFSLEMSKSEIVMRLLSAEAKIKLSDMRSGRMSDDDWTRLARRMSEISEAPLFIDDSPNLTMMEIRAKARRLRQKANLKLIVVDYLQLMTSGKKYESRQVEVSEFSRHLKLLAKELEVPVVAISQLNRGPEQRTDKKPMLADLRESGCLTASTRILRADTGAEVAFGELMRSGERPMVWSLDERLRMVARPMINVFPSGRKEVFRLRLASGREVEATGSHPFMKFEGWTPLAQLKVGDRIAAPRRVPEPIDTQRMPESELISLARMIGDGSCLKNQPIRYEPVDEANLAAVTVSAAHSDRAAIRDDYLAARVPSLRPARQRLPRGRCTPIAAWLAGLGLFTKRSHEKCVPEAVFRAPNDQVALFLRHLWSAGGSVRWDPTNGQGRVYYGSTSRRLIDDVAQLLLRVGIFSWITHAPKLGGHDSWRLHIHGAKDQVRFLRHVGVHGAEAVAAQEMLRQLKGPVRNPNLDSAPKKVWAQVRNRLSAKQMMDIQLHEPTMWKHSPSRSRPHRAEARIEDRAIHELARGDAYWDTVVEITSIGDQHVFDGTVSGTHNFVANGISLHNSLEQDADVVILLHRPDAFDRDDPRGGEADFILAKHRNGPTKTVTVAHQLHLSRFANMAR
Briefly: DnaB intein splicing inhibitors, dose response, biochemical, cell-free fluorescence (AID 449749). Type of experiment: functional.

A further experiment concerns Vero. Briefly: viability of Vero cells under compound – cytotoxicity control for flavivirus capping enzyme inhibitors (AID 588742). Type of experiment: functional. The note with it: Chlorocebus sabaeus.
In experiment [18] the target is T2, Apoptotic protease-activating factor 1 (Homo sapiens, UniProt O14727).
T2 sequence (O14727 whole entry): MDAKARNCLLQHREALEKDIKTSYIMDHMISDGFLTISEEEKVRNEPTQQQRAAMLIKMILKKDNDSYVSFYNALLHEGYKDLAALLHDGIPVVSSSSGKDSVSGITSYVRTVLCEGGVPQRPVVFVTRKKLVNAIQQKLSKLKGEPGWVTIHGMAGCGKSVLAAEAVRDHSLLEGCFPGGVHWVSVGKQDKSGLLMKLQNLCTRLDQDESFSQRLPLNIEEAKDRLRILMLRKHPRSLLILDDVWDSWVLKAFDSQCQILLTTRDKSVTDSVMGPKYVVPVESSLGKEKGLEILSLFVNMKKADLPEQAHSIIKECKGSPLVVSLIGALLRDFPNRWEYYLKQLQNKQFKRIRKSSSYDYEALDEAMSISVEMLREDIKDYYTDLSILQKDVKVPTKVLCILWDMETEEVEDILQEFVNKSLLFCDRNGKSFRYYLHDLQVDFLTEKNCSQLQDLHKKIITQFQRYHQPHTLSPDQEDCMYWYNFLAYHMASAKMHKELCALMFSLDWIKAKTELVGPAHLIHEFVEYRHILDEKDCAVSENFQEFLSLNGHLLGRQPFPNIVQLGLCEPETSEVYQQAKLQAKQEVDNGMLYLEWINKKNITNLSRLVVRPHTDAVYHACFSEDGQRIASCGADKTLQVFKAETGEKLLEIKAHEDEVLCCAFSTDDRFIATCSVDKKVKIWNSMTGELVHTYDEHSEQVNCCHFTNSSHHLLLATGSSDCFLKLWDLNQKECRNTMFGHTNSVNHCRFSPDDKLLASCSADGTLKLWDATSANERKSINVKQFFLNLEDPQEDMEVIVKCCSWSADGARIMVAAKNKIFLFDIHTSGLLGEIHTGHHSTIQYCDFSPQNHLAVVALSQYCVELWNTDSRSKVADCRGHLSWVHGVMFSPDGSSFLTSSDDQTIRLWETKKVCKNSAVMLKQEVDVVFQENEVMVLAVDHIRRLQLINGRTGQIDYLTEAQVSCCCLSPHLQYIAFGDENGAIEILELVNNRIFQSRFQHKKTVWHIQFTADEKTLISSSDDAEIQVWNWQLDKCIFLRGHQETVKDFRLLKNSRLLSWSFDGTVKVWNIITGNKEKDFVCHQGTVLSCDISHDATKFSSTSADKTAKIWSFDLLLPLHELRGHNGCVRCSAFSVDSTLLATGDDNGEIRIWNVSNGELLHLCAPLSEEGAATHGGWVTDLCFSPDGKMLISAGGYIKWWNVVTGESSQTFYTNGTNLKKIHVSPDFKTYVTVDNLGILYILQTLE
It is filed as functional.

Another experiment has as its target T3, Protein RecA (Mycobacterium tuberculosis, UniProt P9WHJ3).
T3 sequence (P9WHJ3 whole entry): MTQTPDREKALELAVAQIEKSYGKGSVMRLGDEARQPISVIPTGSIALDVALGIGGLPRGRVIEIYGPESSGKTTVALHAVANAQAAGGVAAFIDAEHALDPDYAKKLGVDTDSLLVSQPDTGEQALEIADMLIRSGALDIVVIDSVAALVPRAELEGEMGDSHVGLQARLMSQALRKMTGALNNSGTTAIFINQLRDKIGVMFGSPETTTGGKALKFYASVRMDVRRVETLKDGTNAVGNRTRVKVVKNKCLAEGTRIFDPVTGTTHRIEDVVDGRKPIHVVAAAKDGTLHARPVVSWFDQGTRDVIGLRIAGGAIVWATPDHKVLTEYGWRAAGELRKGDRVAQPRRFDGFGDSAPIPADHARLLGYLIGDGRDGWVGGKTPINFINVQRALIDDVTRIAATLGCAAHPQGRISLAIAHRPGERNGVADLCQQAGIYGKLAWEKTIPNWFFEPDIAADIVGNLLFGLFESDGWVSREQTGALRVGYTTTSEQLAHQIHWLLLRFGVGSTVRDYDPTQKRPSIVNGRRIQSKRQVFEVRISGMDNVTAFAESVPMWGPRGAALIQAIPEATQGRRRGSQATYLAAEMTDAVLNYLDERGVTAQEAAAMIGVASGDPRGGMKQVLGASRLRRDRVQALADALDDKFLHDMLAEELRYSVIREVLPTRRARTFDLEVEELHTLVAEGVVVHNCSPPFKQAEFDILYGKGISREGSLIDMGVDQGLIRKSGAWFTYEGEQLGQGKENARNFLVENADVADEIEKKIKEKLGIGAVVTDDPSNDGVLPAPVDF
The experiment in a line: Fluorescence Cell-Free Homogeneous Dose Retest to Identify Inhibitors of RecA-Intein Splicing Activity. [Related pubchem assays (depositor defined):AID2097, AID2223, AID489010, AID492950]. Type of experiment: functional.

In another experiment the test system is INS1. Briefly: INS-1E survival protection against cytokine death – cell-based, luminescence, retest, dose response (AID 449756).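 Further: cell death triggered by IL-1 beta plus TNF-alpha plus IFN-gamma mixture; protective hits raise ATP signal compared with cytokine alone wells.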 It is filed as functional. The settings on record: Rattus norvegicus.
In experiment [19] the target is Mitochondrial peptide methionine sulfoxide reductase (Bos taurus, UniProt P54149). It is filed as functional.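 Further: absorbance read-out, biochemical high-throughput dose-response screen for MsrA inhibitors, confirmatory; recombinant bovine MsrA coupled to E. coli TrxB with NADPH and selenocystamine; potency is for inhibitors of MsrA activity on DMSO substrate.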
Mitochondrial peptide methionine sulfoxide reductase, sequence (P54149 whole entry): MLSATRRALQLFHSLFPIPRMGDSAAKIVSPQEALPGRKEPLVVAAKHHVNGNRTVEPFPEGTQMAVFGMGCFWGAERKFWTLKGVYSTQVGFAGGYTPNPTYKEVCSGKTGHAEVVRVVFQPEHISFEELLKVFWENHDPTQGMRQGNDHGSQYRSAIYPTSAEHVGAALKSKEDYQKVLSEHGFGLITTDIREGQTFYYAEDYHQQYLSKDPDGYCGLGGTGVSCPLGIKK

Serine/threonine-protein phosphatase, sequence (Q9BPW0 whole entry): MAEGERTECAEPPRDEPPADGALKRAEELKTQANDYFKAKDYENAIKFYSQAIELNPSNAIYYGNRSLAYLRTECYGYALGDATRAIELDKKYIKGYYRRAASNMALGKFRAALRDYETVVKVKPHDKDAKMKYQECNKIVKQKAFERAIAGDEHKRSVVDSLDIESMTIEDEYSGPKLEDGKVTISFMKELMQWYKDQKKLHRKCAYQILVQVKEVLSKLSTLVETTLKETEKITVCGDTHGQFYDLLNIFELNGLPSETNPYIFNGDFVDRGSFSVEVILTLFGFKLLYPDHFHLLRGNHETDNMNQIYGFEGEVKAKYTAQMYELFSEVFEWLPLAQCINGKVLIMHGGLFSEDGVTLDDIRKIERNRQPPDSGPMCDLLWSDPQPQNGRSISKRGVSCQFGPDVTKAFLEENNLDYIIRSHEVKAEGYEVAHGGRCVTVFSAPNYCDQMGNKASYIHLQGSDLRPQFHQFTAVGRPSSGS
Serine/threonine-protein phosphatase PP1-alpha catalytic subunit, sequence (P62136 whole entry): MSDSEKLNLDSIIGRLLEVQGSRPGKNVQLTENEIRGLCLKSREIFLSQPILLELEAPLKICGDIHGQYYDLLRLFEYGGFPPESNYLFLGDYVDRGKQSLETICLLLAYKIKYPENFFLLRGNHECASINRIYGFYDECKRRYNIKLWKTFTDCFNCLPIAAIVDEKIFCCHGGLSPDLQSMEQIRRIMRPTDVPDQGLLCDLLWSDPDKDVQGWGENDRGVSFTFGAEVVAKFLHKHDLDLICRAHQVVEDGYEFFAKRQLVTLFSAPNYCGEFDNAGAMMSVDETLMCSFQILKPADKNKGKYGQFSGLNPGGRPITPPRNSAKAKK
Protein-tyrosine kinase 2-beta, sequence (Q14289 whole entry): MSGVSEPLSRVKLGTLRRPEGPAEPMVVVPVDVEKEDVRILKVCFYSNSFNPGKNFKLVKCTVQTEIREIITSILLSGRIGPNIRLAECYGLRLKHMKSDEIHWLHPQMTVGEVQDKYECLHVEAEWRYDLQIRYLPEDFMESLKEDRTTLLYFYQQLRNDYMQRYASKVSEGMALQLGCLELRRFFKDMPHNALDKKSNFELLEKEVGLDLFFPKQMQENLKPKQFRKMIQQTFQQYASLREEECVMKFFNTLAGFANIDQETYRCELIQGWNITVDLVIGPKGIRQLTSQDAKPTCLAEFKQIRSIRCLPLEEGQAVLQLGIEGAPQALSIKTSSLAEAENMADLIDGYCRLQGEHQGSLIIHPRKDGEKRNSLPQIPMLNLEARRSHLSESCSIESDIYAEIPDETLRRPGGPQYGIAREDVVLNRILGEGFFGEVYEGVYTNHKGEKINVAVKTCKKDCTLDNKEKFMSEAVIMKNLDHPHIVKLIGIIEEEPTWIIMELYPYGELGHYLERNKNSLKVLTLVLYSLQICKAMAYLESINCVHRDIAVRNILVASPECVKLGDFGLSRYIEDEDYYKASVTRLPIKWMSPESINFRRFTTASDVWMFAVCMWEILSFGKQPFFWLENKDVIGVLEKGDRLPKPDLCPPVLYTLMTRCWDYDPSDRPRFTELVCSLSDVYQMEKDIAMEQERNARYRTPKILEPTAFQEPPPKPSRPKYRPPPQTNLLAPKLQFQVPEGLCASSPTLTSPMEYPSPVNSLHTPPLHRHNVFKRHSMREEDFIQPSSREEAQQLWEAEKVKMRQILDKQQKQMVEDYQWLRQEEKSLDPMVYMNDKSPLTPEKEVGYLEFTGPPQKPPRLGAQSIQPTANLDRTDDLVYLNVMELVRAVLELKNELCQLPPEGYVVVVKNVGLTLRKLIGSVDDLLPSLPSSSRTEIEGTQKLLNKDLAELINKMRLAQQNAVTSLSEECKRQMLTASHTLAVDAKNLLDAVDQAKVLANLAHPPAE
NADPH oxidase 1, sequence (Q9Y5S8 whole entry): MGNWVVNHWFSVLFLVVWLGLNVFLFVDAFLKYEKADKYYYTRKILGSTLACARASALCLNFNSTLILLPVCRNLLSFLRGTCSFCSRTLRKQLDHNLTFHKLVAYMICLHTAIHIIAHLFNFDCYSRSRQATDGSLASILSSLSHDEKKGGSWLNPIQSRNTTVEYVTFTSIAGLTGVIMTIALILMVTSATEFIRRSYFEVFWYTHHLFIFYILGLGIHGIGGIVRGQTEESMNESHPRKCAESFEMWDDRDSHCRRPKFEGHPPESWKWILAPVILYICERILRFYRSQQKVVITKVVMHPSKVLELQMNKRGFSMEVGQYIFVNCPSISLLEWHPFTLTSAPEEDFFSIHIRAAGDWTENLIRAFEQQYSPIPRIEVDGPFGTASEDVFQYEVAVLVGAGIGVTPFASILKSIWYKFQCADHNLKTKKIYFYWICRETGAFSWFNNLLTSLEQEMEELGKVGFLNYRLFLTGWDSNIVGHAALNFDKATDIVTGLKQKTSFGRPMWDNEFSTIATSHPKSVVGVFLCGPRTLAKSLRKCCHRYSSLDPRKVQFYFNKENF

As to `CC1CN(Cc2ccccc2)c2nc3c(c(=O)n(CC(N)=O)c(=O)n3C)n2C1` (stereo not given), the EC50 on Transthyretin was > 167 µM (inactive).

Regarding `COc1cc(C(=O)NCc2nnc(SCC(=O)Nc3nc4ccc(C)cc4s3)o2)cc(OC)c1OC`, the CC50 in experiment [1] was > 40 µM (active).

Take `O=C(/C=C/c1ccccc1)N1c2ccccc2Sc2ccc(C(F)(F)F)cc21`: the IC50 against NADPH oxidase 1 is listed as > 50 µM (not active).

As to `Cc1nc(N2[C@H](CO)[C@H](c3ccccc3)[C@H]2CNCC2CCC2)sc1C`, the half-maximal activity concentration (AC50) in [2] was 1.47 µM (active); in [3], > 100 µM (inactive); in experiment [4], 1.8 µM (active); in experiment [5], 0.881 µM (active); in experiment [6] it was 29.3 µM (active); in [7] it was 1.34 µM (active).

In the case of `Cc1ccccc1NC1=C/C(=N\S(=O)(=O)c2cccs2)c2ccccc2C1=O`, the IC50 in [8] is > 22.3 µM (not active); in experiment [12], > 69.5 µM (not active); in [13] it was 1.83 µM (active); in [15], 0.438 µM (active); in experiment [16], 0.44 µM (active); in experiment [18], 0.335 µM (active). The IC50 in experiment [19] was 692 µM (inactive). The EC50 in [9] was 0.701 µM (active); in experiment [10] it was 1.04 µM (active); in [14], 1.95 µM (active); with Streptococcus, 4.55 µM (active); at Protein RecA, 0.654 µM (active). Moreover, the CC50 is 3.13 µM (active) in experiment [11] and 4.33 µM (active) in the experiment on Vero. Also, the AC50 is > 120 µM (inactive) in [17] and 0.413 µM (active) in the experiment with INS1.
